Experimental findings from article PMC3715522, “Characterization of Fructose-1,6-Bisphosphate Aldolase during Anoxia in the Tolerant Turtle, Trachemys scripta elegans: An Assessment of Enzyme Activity, Expression and Structure” (PLoS ONE, 2013) are described below.

Usually Km stands for the concentration of substrate that gives half-maximal velocity.

This assay has as its system T1, turtle liver aldolase (ALDOA/ALDOB, suggested heterotetramer).
T1 construct: native, purified from liver of normoxic adult females (DEAE+, two Cibacron Blue steps); ~37 kDa subunit
The assay can be described thus: coupled NADH assay (alpha-glycerophosphate dehydrogenase / triose phosphate isomerase), […] nm. The class given is biochemical, Trachemys scripta elegans. The conditions noted are these: enzyme from normoxic liver; 100 mM KPi pH 7.2, 10 mM EDTA, 25 °C; A/B isoenzyme mixture or heterotetramer.

For `O=P(O)(O)OCC1(O)O[C@H](CO)[C@@H](O)[C@@H]1O` (some centres unmarked) [F1P, fructose-1-phosphate], the Michaelis-Menten constant (Km) is about 14 mM.

For `O=P(O)(O)OC[C@H]1OC(O)(COP(=O)(O)O)[C@@H](O)[C@@H]1O` (some centres unmarked) [FBP, fructose-1,6-bisphosphate], the Km worked out at 0.00024 ± 3e-05 mM.
